SMILES strings stand for the structures.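 In this assay, cells in 96-well plates receive the compound at five concentrations for 48 hours. Endpoints are linearly interpolated between the surrounding concentrations. Abbreviation: GI50, concentration required for 50% inhibition of growth. TGI: concentration producing complete growth inhibition.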

Some test systems named below: COLO 205 colon; HL-60(TB) leukemia; HOP-92 NSCLC; HS 578T breast; OVCAR-5 ovarian; SK-OV-3 ovarian; SN12C renal; SNB-19 CNS; T-47D breast; EKVX NSCLC.
Common to all, as to test: NCI tumour cell line growth inhibition, 48 h

Take `FC(F)(F)c1cc(-c2ncn(/C=C\c3nnco3)n2)cc(C(F)(F)F)c1`: the GI50 with COLO 205 colon is 55 nM; in the experiment with HL-60(TB) leukemia, 48.5 nM; in the experiment with HOP-92 NSCLC, 39.1 nM; in the experiment with HS 578T breast, 195 nM; in the experiment with OVCAR-5 ovarian, 267 nM; in the experiment on SK-OV-3 ovarian, 223 nM. The GI50 in the experiment with SN12C renal is 417 nM; with SNB-19 CNS, 126 nM; in the experiment with T-47D breast, 56.7 nM. In addition, the TGI in the experiment on COLO 205 colon is 14 µM; in the experiment with HL-60(TB) leukemia it was 13.4 µM; with HOP-92 NSCLC, 4.87 µM; with HS 578T breast it was 8.28 µM; in the experiment with OVCAR-5 ovarian, more than 63.3 µM; with SK-OV-3 ovarian, more than 67.3 µM. Moreover, the figures for the TGI in the experiment with SN12C renal, with SNB-19 CNS and in the experiment on T-47D breast were more than 100 µM, more than 100 µM and more than 41.5 µM, respectively.

Turning to `O=Cc1ccc(-c2ccc(-c3ccc(C=O)o3)[se]2)o1`, the GI50 was more than 100000 nM in the experiment with COLO 205 colon; more than 100000 nM in the experiment with HL-60(TB) leukemia; 57100 nM in the experiment with HOP-92 NSCLC; more than 100000 nM in the experiment on HS 578T breast; more than 85200 nM in the experiment on OVCAR-5 ovarian; more than 85800 nM with SK-OV-3 ovarian. The GI50 with SN12C renal, in the experiment with SNB-19 CNS and in the experiment on T-47D breast was more than 100000 nM each time. The TGI with COLO 205 colon, in the experiment with HL-60(TB) leukemia, in the experiment with HOP-92 NSCLC, in the experiment on HS 578T breast, with OVCAR-5 ovarian and in the experiment with SK-OV-3 ovarian was more than 100 µM in each case. In addition, the TGI with SN12C renal, in the experiment with SNB-19 CNS and in the experiment with T-47D breast was more than 100 µM each time.

On to `CCOC(=O)[C@@H](C)C[C@H](Cc1ccccc1)NC(=O)c1csc([C@@H](C[C@H](C(C)C)N(C)C(=O)[C@@H](NC(=O)[C@H]2C[C@H](O)CCN2C)C(C)C)OC(C)=O)n1`, for which the GI50 with COLO 205 colon was less than 1.67 nM; with EKVX NSCLC, 50 nM; in the experiment on HL-60(TB) leukemia, 2.78 nM; in the experiment with HOP-92 NSCLC, 6.63 nM; in the experiment on HS 578T breast it was 9.06 nM; with OVCAR-5 ovarian, 15 nM. For the same compound, the figures for the GI50 in the experiment on SK-OV-3 ovarian, with SN12C renal and in the experiment with SNB-19 CNS were 4.74 nM, 9.36 nM and 3.12 nM, respectively. Further, the TGI in the experiment on COLO 205 colon is 0.0143 µM; in the experiment with EKVX NSCLC, more than 16.7 µM; in the experiment with HL-60(TB) leukemia, 0.012 µM; in the experiment on HOP-92 NSCLC, more than 4.46 µM; in the experiment with HS 578T breast, more than 16.7 µM; in the experiment with OVCAR-5 ovarian, more than 16.7 µM. Moreover, the TGI in the experiment on SK-OV-3 ovarian, in the experiment with SN12C renal and in the experiment on SNB-19 CNS was more than 16.7 µM in each case.

In the case of `O=C(O)c1cn(C2CC2)c2cc(N3CCN(C(=O)Nc4nc(-c5ccc(Br)cc5)cs4)CC3)c(F)cc2c1=O`, the GI50 was 2000 nM in the experiment on HOP-92 NSCLC; 1910 nM with HS 578T breast; 3070 nM in the experiment with SN12C renal; 1410 nM in the experiment with SNB-19 CNS; 1570 nM in the experiment on T-47D breast. Also, the TGI is 6.88 µM with HOP-92 NSCLC; more than 100 µM in the experiment with HS 578T breast; more than 100 µM with SN12C renal; more than 100 µM in the experiment with SNB-19 CNS; more than 100 µM in the experiment with T-47D breast.

As to `CC(C)OCc1cc(CN2CCN(c3cccc(Cl)c3)CC2)c(O)c2ncccc12`, the GI50 with COLO 205 colon was 5940 nM; in the experiment with HL-60(TB) leukemia, 388 nM; in the experiment with HOP-92 NSCLC, 1430 nM; with HS 578T breast, 4030 nM; in the experiment on OVCAR-5 ovarian, 3600 nM; in the experiment with SK-OV-3 ovarian it was 710 nM. Besides, the results for the GI50 in the experiment on SN12C renal, with SNB-19 CNS and in the experiment with T-47D breast were 917 nM, 504 nM and 556 nM, respectively. The TGI in the experiment on COLO 205 colon turned out to be 19.2 µM; in the experiment with HL-60(TB) leukemia, 2.84 µM; with HOP-92 NSCLC it was 19.4 µM; in the experiment with HS 578T breast it was 35.3 µM; in the experiment with OVCAR-5 ovarian, 15.1 µM; in the experiment with SK-OV-3 ovarian, 12.2 µM. Further, the TGI was 15.6 µM in the experiment with SN12C renal, 21.7 µM in the experiment with SNB-19 CNS and 18.4 µM in the experiment with T-47D breast.

With `COc1ncc(-c2ccc3nccc(C#CCN4CCN(S(C)(=O)=O)CC4)c3c2)cc1NS(=O)(=O)c1ccc(F)cc1F`, the GI50 is 41.8 nM with COLO 205 colon; 146 nM in the experiment on EKVX NSCLC; 25.7 nM with HL-60(TB) leukemia; 20.7 nM in the experiment with OVCAR-5 ovarian; 17.5 nM in the experiment with SK-OV-3 ovarian; 124 nM in the experiment with SN12C renal. For the same compound, the GI50 with SNB-19 CNS is 299 nM; in the experiment with T-47D breast, less than 10 nM. Also, the TGI with COLO 205 colon was determined as 1.18 µM; in the experiment on EKVX NSCLC, 12.4 µM; in the experiment on HL-60(TB) leukemia it was 1.81 µM; in the experiment with OVCAR-5 ovarian it was 5.72 µM; in the experiment on SK-OV-3 ovarian it was 0.168 µM; with SN12C renal it was 11.7 µM. The TGI in the experiment on SNB-19 CNS was determined as 2.11 µM; in the experiment on T-47D breast, 0.0178 µM.

`Brc1ccc(Nc2nc3ccccc3nc2Nc2ccc(Br)cc2)cc1`: the GI50 is 1840 nM in the experiment with COLO 205 colon; 2090 nM in the experiment on HL-60(TB) leukemia; 2190 nM in the experiment with HOP-92 NSCLC; 2900 nM in the experiment with HS 578T breast; 1030 nM in the experiment on OVCAR-5 ovarian; 2140 nM with SK-OV-3 ovarian. The GI50 with SN12C renal was 2160 nM; in the experiment on SNB-19 CNS it was 591 nM; in the experiment on T-47D breast it was 936 nM. The TGI in the experiment with COLO 205 colon worked out at 3.35 µM; in the experiment with HL-60(TB) leukemia it was 5.96 µM; with HOP-92 NSCLC, 5.5 µM; in the experiment on HS 578T breast it was 9.05 µM; with OVCAR-5 ovarian, 5.15 µM; in the experiment on SK-OV-3 ovarian it was 7.69 µM. The TGI amounted to 6.5 µM in the experiment with SN12C renal, 12.2 µM in the experiment with SNB-19 CNS and 7.09 µM in the experiment with T-47D breast.

Regarding `O=c1[nH]c(F)nc2c1ncn2C1OC(CO)C(O)C1O` (centres undefined), the GI50 in the experiment on COLO 205 colon, with HL-60(TB) leukemia, with HOP-92 NSCLC, in the experiment with HS 578T breast, in the experiment with OVCAR-5 ovarian and in the experiment on SK-OV-3 ovarian was more than 100000 nM throughout. Moreover, the GI50 with SN12C renal, in the experiment on SNB-19 CNS and in the experiment with T-47D breast was more than 100000 nM in each case. For the same compound, the TGI in the experiment with COLO 205 colon, in the experiment with HL-60(TB) leukemia, with HOP-92 NSCLC, in the experiment on HS 578T breast, in the experiment on OVCAR-5 ovarian and in the experiment on SK-OV-3 ovarian was more than 100 µM throughout. Also, the TGI in the experiment with SN12C renal, with SNB-19 CNS and with T-47D breast was more than 100 µM each time.

For the origin of these results see PubChem BioAssay (NCI).
